The test system of the test is human PBMCs. The test is described as follows: Stimulation of PBMCs with anti-CD1b antibody and/or IL-2, cytokines measured in culture supernatants. Type of test: cell-based. The note with it: PMB at 10 µg/ml (60 U/ml); anti-CD16 as Fc γ receptor blocking antibody. From the text:
PBMCs are then separated from whole blood or from leukapheresis products. Any method for separating mononuclear cells may be used. For example, the Ficoll separation method, i.e., a Ficoll-Paque density gradient is frequently used. For this purpose LSM1077 Lymphocyte Separation Medium (PAA, Pasching, Austria) in combination with Leucosep (greiner bio-one, Frickenhausen, Germany) can be used for the optimal separation of PBMCs.
The whole PBMCs or the CD56-positive PBMCs obtained are resuspended preferably at cell numbers of 1.0-1.5 x 10^6/ml in a cell culture medium such as RPMI-1640 (Lonza, Basel, Switzerland), AIM-V (Invitrogen, Carlsbad, CA, USA) or CellGro SCGM (CellGenix, Freiburg, Germany). The cell culture medium may be further supplemented with autologous or clinical quality heterologous serum or plasma at 1-20%. There is no limitation for the culture vessels used, which may be a plate, laboratory dish, flask, bag typically used for cell cultivation.
An antibody directed against CDlb (clone B-B5 from Diaclone, Besancon, France or clone WM25 from ImmunoKontact via AMS Biotechnology, Lugano, Switzerland) is added to these cultures. […] Activation as detected by the BD FastImmune (BD Biosciences, San Jose, CA, USA) of NK cells and T cells (both αß T cells and γδ T cells) occurs already within the first 12 to 16 hours. […]

From patent EP2537923A1, “Method for activation of specific peripheral blood mononuclear cells” (Oncotyrol Center for Personalized Cancer Medicine GmbH, priority 2011, dated 2012) come the findings set out here.

Consider polymyxin B [PMB], for which the “effect on IFN-γ production / response induced by CDlb antibodies” value was “failed to abolish”.
